Source: ChEMBL document CHEMBL1146396, “(2E,9E)-pyronaamidine 9-(N-methylimine), a new imidazole alkaloid from the northern Mariana islands sponge Leucetta sp. cf. chagosensis” (1997)
≈ marks a conversion by molar mass, not a printed value.

Tests used:
Type in all cases: functional
A549 = test: Cytotoxicity against human A549 cells
MCF7 = test: Cytotoxicity against human MCF7 cells
HT-29 = test: Cytotoxicity against human HT-29 cells
Bacillus subtilis = test: Antimicrobial activity against Bacillus subtilis at 100 ug/disk; conditions: read-out: IZ
Candida albicans = test: Antimicrobial activity against Candida albicans at 100 ug/disk; conditions: read-out: IZ

| Structure (SMILES) | GI50 (A549) | GI50 (MCF7) | GI50 (HT-29) | zone of inhibition at 100 µg/disc (Bacillus subtilis) | zone of inhibition at 100 µg/disc (Candida albicans) |
| --- | --- | --- | --- | --- | --- |
| C/N=C1N=C(/N=c2\[nH]c(Cc3ccc(OC)cc3)c(Cc3ccc(OC)c(OC)c3O)n2C)C(=O)N\1C | 6 µg/mL (≈ 11.8 µM) | 3 µg/mL (≈ 5.92 µM) | 6 µg/mL (≈ 11.8 µM) | – | – |
| COc1ccc(Cc2nc(/N=C3\NC(=O)N(C)C3=O)n(C)c2Cc2ccc(OC)c(OC)c2O)cc1 [PYRONAAMIDINE] | – | – | – | 10 mm | 7 mm |
